According to ChEMBL document CHEMBL1201862, “PubChem BioAssay data set” (2004):
Active and inactive are the calls of the source. Rule as the data show it, for most assays here: actives have a measured IC50 and inactives only a lower limit.

Tests used:
[1] = tested on: HeLa; test: HeLa cell cytotoxicity, dose response, cytotoxicity control, 24 h, cherry-picked samples (AID 504726); assay type: functional, cell-based; conditions: Homo sapiens;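 also: potency for cytotoxicity as loss of luminescence signal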
[2] = target: T1, Voltage-gated N-type calcium channel alpha-1B subunit/Amyloid beta A4 precursor protein-binding family A member 1 (Homo sapiens, UniProt Q00975+Q02410); test: disruptors of Mint-PDZ/N-type channel peptide interaction – biochemical, HTRF, SAR follow-up (AID 2489); assay type: functional
[3] = target: T1, Voltage-gated N-type calcium channel alpha-1B subunit/Amyloid beta A4 precursor protein-binding family A member 1; assay type: protein assay
[4] = target: T1, Voltage-gated N-type calcium channel alpha-1B subunit/Amyloid beta A4 precursor protein-binding family A member 1; assay type: protein assay; remark: listed apart in the source
[5] = target: Aspartyl aminopeptidase (Plasmodium falciparum 3D7, UniProt Q8I2J3)
[6] = target: Procathepsin L (Homo sapiens, UniProt P07711)
[7] = target: T2, DNA dC->dU-editing enzyme APOBEC-3G (Homo sapiens, UniProt Q9HC16); test: Dose Response confirmation of small molecule APOBEC3G DNA Deaminase Inhibitors via a fluorescence-based single-stranded DNA deaminase assay. [Related pubchem assays (depositor defined):AID493012, AID493028]; assay type: functional
[8] = target: Induced myeloid leukemia cell differentiation protein Mcl-1 (Homo sapiens, UniProt Q07820); assay type: functional
[9] = target: DNA (cytosine-5)-methyltransferase 1 (Homo sapiens, UniProt P26358); test: DNMT1 methyltransferase inhibitors, confirmation, biochemical, fluorescent molecular beacon (AID 602386); assay type: functional
[10] = target: T3, Carboxy-terminal domain RNA polymerase II polypeptide A small phosphatase 1 (Homo sapiens, UniProt Q9GZU7); test: inhibitors of CTDSP1, concentration-response testing, biochemical assay, absorbance-based, actives from ultra-high-throughput screening (AID 540297); assay type: functional
T3 sequence (Q9GZU7 whole entry): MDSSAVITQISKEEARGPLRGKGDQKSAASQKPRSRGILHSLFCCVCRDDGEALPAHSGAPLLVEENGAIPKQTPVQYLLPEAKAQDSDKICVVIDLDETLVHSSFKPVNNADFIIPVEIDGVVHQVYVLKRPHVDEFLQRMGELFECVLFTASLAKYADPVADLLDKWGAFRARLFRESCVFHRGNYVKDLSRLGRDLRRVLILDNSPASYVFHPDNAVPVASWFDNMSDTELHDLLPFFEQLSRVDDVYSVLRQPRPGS

[11] = target: DNA dC->dU-editing enzyme APOBEC-3A (Homo sapiens, UniProt P31941); test: Dose Response confirmation of small molecule APOBEC3A DNA Deaminase Inhibitors via a fluorescence-based single-stranded DNA deaminase assay. [Related pubchem assays (depositor defined):AID493011, AID493024]; assay type: functional
[12] = target: T4, Polyadenylate-binding protein 1 (Homo sapiens, UniProt P11940); test: PABP poly(A) RNA binding inhibitors, primary screen, biochemical, fluorescence polarization, uHTS (AID 2014)
[13] = target: T5, Eukaryotic translation initiation factor 4H (Homo sapiens, UniProt Q15056); test: human eIF4H binding inhibitors, primary screen, translation initiation inhibitor project, biochemical, uHTS, fluorescence polarization (AID 2012)
[14] = target: T2, DNA dC->dU-editing enzyme APOBEC-3G; assay type: functional
[15] = target: T5, Eukaryotic translation initiation factor 4H; test: eIF4H inhibition in translation initiation, SAR follow-up (AID 435011); assay type: functional
[16] = target: T6, Hexokinase HKDC1 (Homo sapiens, UniProt Q2TB90); test: HKDC1 hexokinase inhibitors, dose response, biochemical, W721R variant (AID 504729); assay type: functional
T6 sequence (Q2TB90 whole entry): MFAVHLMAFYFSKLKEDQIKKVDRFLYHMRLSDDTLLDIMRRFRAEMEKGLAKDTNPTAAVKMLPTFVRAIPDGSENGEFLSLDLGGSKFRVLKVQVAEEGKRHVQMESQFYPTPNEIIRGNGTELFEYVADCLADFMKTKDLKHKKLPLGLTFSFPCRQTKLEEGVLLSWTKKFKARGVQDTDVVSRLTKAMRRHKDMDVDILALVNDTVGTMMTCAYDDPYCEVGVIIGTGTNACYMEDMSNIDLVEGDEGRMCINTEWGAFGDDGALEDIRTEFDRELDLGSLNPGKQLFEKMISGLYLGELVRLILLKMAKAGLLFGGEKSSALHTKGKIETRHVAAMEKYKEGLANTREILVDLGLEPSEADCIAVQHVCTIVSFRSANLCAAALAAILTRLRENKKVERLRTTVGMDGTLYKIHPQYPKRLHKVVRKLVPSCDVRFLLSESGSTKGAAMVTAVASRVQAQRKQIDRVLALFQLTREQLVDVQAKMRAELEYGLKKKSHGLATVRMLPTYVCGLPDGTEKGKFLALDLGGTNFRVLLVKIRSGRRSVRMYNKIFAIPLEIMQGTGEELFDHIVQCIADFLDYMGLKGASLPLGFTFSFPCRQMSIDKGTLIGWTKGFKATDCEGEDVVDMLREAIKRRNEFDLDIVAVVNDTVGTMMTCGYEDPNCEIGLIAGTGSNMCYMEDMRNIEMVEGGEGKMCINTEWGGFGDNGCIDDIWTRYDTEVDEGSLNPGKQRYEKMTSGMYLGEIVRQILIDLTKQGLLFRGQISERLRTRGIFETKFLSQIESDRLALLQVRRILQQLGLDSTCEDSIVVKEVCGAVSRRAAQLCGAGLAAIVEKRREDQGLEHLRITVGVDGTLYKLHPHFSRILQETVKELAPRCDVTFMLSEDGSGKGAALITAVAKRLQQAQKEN

[17] = target: T4, Polyadenylate-binding protein 1; test: PABP inhibition in translation initiation, SAR follow-up (AID 435018); assay type: functional
[18] = A Cell Based Secondary Assay To Explore Cytotoxicity of Compounds that Sensitize Mycobacterium Tuberculosis to Beta-Lactam Antibiotics.; assay type: functional

T1 sequence (Q00975 whole entry): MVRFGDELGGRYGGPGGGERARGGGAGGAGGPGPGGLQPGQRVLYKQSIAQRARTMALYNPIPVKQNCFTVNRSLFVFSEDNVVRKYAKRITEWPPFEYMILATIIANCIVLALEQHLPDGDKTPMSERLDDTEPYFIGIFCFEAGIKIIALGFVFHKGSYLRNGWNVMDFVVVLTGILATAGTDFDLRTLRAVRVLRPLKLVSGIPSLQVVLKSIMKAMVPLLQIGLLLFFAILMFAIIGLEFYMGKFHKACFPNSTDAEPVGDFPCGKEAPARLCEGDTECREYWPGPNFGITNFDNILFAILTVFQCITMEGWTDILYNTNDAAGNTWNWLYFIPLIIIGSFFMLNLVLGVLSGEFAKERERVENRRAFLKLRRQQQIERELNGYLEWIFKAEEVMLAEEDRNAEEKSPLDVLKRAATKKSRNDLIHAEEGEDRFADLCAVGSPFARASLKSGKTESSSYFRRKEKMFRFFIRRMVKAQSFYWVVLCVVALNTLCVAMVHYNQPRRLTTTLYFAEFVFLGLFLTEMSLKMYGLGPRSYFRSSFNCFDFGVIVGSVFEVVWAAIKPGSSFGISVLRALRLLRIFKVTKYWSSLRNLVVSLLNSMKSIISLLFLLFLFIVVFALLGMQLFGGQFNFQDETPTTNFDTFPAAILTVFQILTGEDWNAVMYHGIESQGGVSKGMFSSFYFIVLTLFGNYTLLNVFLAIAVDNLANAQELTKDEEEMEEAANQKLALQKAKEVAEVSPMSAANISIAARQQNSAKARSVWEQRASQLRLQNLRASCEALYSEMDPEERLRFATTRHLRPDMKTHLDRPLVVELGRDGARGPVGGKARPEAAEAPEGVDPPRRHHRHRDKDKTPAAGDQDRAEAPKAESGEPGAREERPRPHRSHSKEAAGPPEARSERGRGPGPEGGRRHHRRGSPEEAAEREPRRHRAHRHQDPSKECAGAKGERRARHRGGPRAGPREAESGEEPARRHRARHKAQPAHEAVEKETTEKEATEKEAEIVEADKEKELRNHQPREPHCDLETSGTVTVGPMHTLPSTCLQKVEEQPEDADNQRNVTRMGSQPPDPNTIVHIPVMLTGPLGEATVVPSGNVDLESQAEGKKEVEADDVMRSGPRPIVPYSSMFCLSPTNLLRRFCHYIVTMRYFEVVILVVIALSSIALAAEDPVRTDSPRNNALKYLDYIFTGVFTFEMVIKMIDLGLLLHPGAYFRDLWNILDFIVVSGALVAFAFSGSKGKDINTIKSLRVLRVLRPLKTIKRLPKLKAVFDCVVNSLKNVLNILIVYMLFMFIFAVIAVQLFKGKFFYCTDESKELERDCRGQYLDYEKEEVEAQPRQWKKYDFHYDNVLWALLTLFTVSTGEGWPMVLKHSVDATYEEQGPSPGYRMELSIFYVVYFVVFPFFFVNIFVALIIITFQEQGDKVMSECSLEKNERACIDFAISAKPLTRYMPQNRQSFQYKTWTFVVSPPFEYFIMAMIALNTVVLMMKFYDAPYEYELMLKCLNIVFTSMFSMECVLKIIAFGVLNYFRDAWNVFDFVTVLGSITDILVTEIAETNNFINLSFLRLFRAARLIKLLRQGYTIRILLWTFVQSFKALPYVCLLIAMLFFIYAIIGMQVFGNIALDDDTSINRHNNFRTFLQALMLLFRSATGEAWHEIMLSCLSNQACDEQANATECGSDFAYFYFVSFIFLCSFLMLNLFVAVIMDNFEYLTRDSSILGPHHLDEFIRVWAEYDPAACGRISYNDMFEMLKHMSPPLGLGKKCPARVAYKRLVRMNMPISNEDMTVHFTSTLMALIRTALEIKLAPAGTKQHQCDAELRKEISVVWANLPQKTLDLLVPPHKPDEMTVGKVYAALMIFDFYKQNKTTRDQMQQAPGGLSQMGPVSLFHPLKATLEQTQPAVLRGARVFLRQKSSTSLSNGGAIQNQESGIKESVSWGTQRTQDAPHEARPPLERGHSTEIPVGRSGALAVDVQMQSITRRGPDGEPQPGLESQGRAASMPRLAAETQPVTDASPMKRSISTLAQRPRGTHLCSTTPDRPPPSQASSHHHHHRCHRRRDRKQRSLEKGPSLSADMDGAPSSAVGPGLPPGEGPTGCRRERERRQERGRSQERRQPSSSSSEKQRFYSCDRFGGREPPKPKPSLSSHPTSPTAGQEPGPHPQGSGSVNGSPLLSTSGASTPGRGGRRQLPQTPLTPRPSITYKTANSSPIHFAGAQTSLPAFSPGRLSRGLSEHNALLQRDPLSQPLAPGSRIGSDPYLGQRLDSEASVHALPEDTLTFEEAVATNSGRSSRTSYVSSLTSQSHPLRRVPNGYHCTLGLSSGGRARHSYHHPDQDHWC
T1 sequence (Q02410 whole entry): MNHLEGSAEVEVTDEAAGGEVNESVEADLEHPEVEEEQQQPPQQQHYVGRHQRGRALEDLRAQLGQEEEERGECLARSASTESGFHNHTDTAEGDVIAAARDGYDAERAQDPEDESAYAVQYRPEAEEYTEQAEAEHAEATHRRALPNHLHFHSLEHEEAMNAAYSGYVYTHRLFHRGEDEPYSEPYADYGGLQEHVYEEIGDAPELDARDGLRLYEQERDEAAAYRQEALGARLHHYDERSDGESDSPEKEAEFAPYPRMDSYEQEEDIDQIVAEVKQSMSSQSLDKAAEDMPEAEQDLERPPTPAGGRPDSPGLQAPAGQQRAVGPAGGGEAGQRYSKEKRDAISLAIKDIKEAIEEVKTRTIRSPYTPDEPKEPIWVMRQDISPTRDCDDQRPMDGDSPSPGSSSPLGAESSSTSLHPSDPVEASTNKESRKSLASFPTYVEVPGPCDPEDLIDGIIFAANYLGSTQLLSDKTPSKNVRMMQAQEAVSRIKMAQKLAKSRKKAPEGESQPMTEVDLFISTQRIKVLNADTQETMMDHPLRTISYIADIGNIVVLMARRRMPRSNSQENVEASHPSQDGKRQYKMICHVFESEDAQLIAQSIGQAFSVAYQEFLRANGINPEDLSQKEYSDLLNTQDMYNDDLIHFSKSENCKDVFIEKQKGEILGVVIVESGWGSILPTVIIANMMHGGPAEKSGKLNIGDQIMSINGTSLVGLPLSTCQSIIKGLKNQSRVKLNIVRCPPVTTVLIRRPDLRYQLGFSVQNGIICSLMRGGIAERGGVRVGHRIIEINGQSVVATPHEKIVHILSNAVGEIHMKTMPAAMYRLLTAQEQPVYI
T2 sequence (Q9HC16 whole entry): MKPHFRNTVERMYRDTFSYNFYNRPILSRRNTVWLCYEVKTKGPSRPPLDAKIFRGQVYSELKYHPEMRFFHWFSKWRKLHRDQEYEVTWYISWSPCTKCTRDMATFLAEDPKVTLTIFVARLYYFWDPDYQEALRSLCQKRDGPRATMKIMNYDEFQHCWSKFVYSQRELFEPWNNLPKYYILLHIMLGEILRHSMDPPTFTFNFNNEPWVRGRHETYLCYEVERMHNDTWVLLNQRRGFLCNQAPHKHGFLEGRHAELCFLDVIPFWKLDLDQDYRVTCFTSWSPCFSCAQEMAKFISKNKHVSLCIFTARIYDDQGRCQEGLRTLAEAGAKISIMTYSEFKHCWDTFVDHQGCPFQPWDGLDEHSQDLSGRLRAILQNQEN
T4 sequence (P11940 whole entry): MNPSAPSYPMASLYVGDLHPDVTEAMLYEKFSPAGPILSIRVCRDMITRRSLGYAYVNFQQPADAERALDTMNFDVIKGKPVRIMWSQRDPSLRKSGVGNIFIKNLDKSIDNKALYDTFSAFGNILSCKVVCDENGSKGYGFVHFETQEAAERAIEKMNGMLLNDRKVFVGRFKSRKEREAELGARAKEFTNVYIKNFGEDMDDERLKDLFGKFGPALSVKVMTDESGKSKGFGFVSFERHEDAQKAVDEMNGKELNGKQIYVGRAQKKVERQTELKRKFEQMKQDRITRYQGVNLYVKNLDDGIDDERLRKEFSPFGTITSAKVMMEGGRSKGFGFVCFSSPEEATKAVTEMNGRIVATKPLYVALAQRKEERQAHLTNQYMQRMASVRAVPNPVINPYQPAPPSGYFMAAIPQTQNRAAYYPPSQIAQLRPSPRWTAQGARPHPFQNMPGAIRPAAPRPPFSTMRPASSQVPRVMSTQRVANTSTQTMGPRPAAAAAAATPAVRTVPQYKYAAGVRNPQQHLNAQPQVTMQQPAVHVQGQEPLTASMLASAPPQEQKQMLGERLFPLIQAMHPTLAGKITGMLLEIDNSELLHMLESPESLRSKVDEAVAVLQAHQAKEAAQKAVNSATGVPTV
DNA dC->dU-editing enzyme APOBEC-3A, sequence (P31941 whole entry): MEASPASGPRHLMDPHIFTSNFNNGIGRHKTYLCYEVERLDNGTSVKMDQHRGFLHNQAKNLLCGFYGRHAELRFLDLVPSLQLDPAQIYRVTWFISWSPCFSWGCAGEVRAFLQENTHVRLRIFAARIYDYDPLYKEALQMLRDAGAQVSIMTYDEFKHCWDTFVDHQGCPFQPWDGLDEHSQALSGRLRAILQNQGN
Induced myeloid leukemia cell differentiation protein Mcl-1, sequence (Q07820 whole entry): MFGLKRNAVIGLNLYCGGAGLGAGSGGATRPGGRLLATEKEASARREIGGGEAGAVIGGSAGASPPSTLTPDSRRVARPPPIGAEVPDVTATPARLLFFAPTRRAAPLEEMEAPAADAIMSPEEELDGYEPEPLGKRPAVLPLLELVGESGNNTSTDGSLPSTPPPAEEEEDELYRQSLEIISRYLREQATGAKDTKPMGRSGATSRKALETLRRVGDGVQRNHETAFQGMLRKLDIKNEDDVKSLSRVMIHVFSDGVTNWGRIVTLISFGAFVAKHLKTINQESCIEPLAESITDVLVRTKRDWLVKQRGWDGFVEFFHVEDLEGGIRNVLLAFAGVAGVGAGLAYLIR

Cc1cc(C)n2nc(C(=O)OC(C)C(=O)c3cc(C)c(C)cc3C)nc2n1 (stereo not given)
AC50 [1]: > 350 µM (inactive)

CCOC(=O)c1sc2nc(-c3ccco3)c3c(c2c1N)CC(C)(C)OC3
IC50 [2]: > 56.8 µM (inactive)
IC50 [3]: 9.58 µM (active)
IC50 [4]: 5.26 µM (active)

Cc1ccc(Cl)cc1NC(=S)Nn1cnnc1
IC50 [5]: 2.06 µM (active)
IC50 [6]: > 59.6 µM (not active)

Oc1cccc2cc3cccc(O)c3c(O)c12
IC50 [7]: 16.9 µM (active)
IC50 [3]: 19.9 µM (active)
IC50 [8]: 2.39 µM (active)
IC50 [9]: 1.9 µM (active)
IC50 [4]: 38.3 µM (active)

COc1ccc(C(CC(=O)N2CCCCC2)c2c(OC)cc(OC)c3c(-c4ccccc4)cc(=O)oc23)cc1 (stereo not given)
IC50 [10]: 4.7 µM (active)
IC50 [11]: 10.4 µM (active)
IC50 [12]: 33.4 µM (active)
IC50 [13]: 7.25 µM (active)
IC50 [14]: 25.9 µM (active)

COc1ccc(NC(=O)CSc2ccc(-c3ccco3)nn2)c(OC)c1
IC50 [15]: 86.5 µM (active)
IC50 [16]: 5.8 µM (active)
IC50 [17]: > 100 µM (inactive)

CCC(C)Nc1c2c(nc3c(-c4ccccc4)c(C)nn13)CCC2 (stereo not given)
CC50 [18]: > 40 µM (active)
